# Measured values reported in patent US20230010299A1, “HETEROCYCLIC TRPML1 AGONISTS” (LIBRA THERAPEUTICS, INC., priority 2019, published 2023).
# Molecular target: T1, TRPML1 (Homo sapiens, UniProt Q9GZU1)
# T1 construct: expressed in transfected cells
# Experiment: Cellular TRPML1 assay (FLIPR TETRA, GCaMP6f calcium read-out)
# Type: cell-based
# Details: HEK T-REx/GCaMP6f/TRPML1 cells; Ca2+ response over 300 s, normalized to ML-SA1 50 μM; Ca2+ free or Optimem condition not given; read-out: Ec50 (Activity of TRPML1 agonists)
# Method: Buffers and reagents • PBS (D-PBS without calcium and magnesium; EuroClone) • Trypsin (Trypsin 0.05%, EDTA 0.02% in PBS; EuroClone) • DMSO (Sigma) • Ca^2+ free Tyrode's buffer: in-house solution (130 mM NaCl, 5 mM KCl, 1 mM MgCl2, 5 mM NaHCO3, 20 mM HEPES in water at pH 7.4; sterile filtered). • Opti-MEM (Gibco) • Agonist: ML-SA1 (Sigma); stock: 60 mM in DMSO, stored at −20° C. • Blocker: ML-SI3 (in house synthesis); stock: 20 mM in DMSO, stored at −20° C.
# The final clone for the TRPML1 assay is HEK T-REx/GCaMP6f/TRPML1.
# GCaMP6f is a genetically encoded calcium indicator that is stably expressed in this cell line and used as a fluorescent read-out.
# Experiments are performed in 384 MTP format. Cells are seeded at 15000 cells/well either in 25 μl/well of growth medium or in 20 μl/well of Optimem+0.5% FBS without selection antibiotics. Twenty-four hours later, cells are assayed for the response to various compounds using the Ca^2+ sensitive GCaMP6f protein stably expressed in the cells as readout.
# The experiment is performed in a 384-well format according to the following procedures for either Ca^2+ free or Optimem conditions: • Ca^2+ free condition (in absence of extracellular Ca^2+): • 24 h after seeding, pre-incubate the cells at room temperature for about 10′. • Then remove the culture medium and replace it with 20 μL of Ca^2+ free Tyrode's buffer. • Start the experiment at the FLIPR^TETRA by injecting 10 μL/w of 3× concentrated test compounds and controls in Ca^2+ free Tyrode's buffer. Monitor the kinetic response over a period of 300 seconds. • Final DMSO concentration: 0.5% • Optimem condition (in presence of extracellular Ca^2+): • 24 h after seeding, pre-incubate the cells at room temperature for about 10′. • Start the experiment at the FLIPR^TETRA by injecting 10 μL/w of 3× concentrated test compounds and controls in Ca^2+ free Tyrode's buffer. Monitor the kinetic response over a period of 300 seconds. • Final DMSO concentration: 0.5%
# Data from FLIPR^TETRA measurements are analyzed with the Genedata Screener® software.
# Stimulator controls (Col 2): injection of ML-SA1 EC100 (50 μM) in alternated wells positions
# Neutral controls (Col 2): injection of 0 mM Ca^2+ free Tyrode's buffer in alternated wells positions.
# Test wells (Col 3-22): test compounds dose response curve from either 100 μM with 1:2 dilution steps or from 50 μM with 1:3.16 dilution steps.
# T1 sequence (Q9GZU1 whole entry): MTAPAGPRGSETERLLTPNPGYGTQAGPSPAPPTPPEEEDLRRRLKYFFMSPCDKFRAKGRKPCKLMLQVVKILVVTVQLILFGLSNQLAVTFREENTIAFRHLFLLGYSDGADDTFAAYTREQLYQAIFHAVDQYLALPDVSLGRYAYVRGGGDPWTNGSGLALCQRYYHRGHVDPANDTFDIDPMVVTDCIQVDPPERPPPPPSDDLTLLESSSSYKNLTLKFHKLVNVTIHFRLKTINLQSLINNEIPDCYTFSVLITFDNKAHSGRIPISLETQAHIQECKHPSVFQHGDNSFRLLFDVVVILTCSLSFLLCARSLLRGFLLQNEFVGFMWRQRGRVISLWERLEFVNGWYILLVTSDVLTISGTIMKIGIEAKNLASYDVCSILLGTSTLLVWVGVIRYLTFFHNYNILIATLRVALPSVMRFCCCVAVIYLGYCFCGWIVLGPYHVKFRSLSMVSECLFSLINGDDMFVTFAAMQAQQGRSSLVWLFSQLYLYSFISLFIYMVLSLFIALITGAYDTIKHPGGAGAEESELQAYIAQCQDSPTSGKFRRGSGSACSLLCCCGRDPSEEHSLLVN
row,SMILES,EC50
1,"O=S(=O)(Nc1ccccc1N1CCCCC1)c1sccc1C1OCCO1 [Example 11, 3-(1,3-dioxolan-2-yl)-N-[2-(piperidin-1-yl)phenyl]thiophene-2-sulfonamide]",33.5 µM
2,"CN(C)S(=O)(=O)c1ccc(S(=O)(=O)Nc2ccccc2N2CCC(c3ccccc3)CC2)cc1 [Example 12, N1,N1-dimethyl-N4-[2-(4-phenylpiperidin-1-yl)phenyl]benzene-1,4-disulfonamide]",2.8 µM
3,"CCCN(C)C(=O)C1CCN(c2ccccc2NS(=O)(=O)c2ccc(S(=O)(=O)N(C)C)cc2)CC1 [Example 14, 1-(2-((4-(N,N-dimethylsulfamoyl)phenyl)sulfonamido)phenyl)-N-methyl-N-propylpiperidine-4-carboxamide]",19.7 µM
4,"CN(C(=O)c1ccc(S(=O)(=O)N(C)C)cc1)c1ccccc1N1CCCCC1 [Example 15, 4-(dimethylsulfamoyl)-N-methyl-N-[2-(piperidin-1-yl)phenyl]benzamide]",59.1 µM
5,"CC(C)(C)c1ccc(S(=O)(=O)Nc2ccccc2N2CC3CCC2C3)s1 (stereo not shown) [Example 16, N-(2-{2-azabicyclo[2.2.1]heptan-2-yl}phenyl)-5-tert-butylthiophene-2-sulfonamide]",14.6 µM
6,"CCc1ccc(S(=O)(=O)Nc2ccccc2N2CC3CCC2C3)s1 (stereo not shown) [Example 17, N-(2-{2-azabicyclo[2.2.1]heptan-2-yl}phenyl)-5-ethylthiophene-2-sulfonamide]",18.2 µM
7,"CCc1ccc(S(=O)(=O)Nc2ccccc2N2CCN(C(=O)OC(C)(C)C)CC2)cc1 [Example 18, tert-butyl 4-(2-((4-ethylphenyl)sulfonamido)phenyl)piperazine-1-carboxylate]",3.5 µM
8,"CCc1ccc(S(=O)(=O)N(C)c2ccccc2N2CC3CCC2C3)s1 (stereo not shown) [Example 21, N-(2-{2-azabicyclo[2.2.1]heptan-2-yl}phenyl)-5-ethyl-N-methylthiophene-2-sulfonamide]",55.6 µM
9,"CN(C)S(=O)(=O)c1ccc(S(=O)(=O)NC2CCCCC2N2CCCCC2)cc1 (stereo not shown) [Example 22, N1,N1-dimethyl-N4-[2-(piperidin-1-yl)cyclohexyl]benzene-1,4-disulfonamide]",98 µM
10,"CC(C)c1ccc(S(=O)(=O)Nc2ccccc2N2CCN(C(=O)OC(C)(C)C)CC2)cc1 [Example 28, tert-butyl 4-(2-((4-isopropylphenyl)sulfonamido)phenyl)piperazine-1-carboxylate]",2.9 µM
11,"CC(C)c1ccc(S(=O)(=O)Nc2ccccc2N2CCC(C(=O)OC(C)(C)C)CC2)cc1 [Example 29, tert-butyl 1-(2-((4-isopropylphenyl)sulfonamido)phenyl)piperidine-4-carboxylate]",2.3 µM
12,"CN(C)S(=O)(=O)c1ccc(S(=O)(=O)Nc2ccccc2CN2CCCCC2)cc1 [Example 30, N1,N1-dimethyl-N4-(2-(piperidin-1-ylmethyl)phenyl)benzene-1,4-disulfonamide]",50 µM
13,"CN(C)S(=O)(=O)c1ccc(S(=O)(=O)Nc2ccccc2N2CCCC2)cc1 [Example 32, N1,N1-dimethyl-N4-[2-(pyrrolidin-1-yl)phenyl]benzene-1,4-disulfonamide]",19.2 µM
14,"COC1CCCN(c2ccccc2NS(=O)(=O)c2ccc(S(=O)(=O)N(C)C)cc2)C1 (stereo not shown) [Example 36, N4-[2-(3-methoxypiperidin-1-yl)phenyl]-N1,N1-dimethylbenzene-1,4-disulfonamide]",7.3 µM
15,"CN(C)S(=O)(=O)c1ccc(S(=O)(=O)Nc2ccccc2N2CCC(O)CC2)cc1 [Example 38, N1-(2-(4-hydroxypiperidin-1-yl)phenyl)-N4,N4-dimethylbenzene-1,4-disulfonamide]",34.5 µM
16,"CC(C)Oc1ccc(S(=O)(=O)Nc2ccccc2N2CCCCC2)cc1 [Example 39, 4-isopropoxy-N-(2-(piperidin-1-yl)phenyl)benzenesulfonamide]",54.5 µM
17,"CN(C)S(=O)(=O)c1ccc(S(=O)(=O)Nc2ccccc2N2CCCOCC2)cc1 [Example 43, N1-(2-(l,4-oxazepan-4-yl)phenyl)-N4,N4-dimethylbenzene-1,4-disulfonamide]",7 µM
18,"CCCOC1CCN(c2ccccc2NS(=O)(=O)c2ccc(S(=O)(=O)N(C)C)cc2)CC1 [Example 45, N1,N1-dimethyl-N4-(2-(4-propoxypiperidin-1-yl)phenyl)benzene-1,4-disulfonamide]",1.9 µM
19,"Cc1ccccc1S(=O)(=O)Nc1ccccc1N1CCN(C(=O)OC(C)(C)C)CC1 [Example 47, tert-butyl 4-(2-((2-methylphenyl)sulfonamido)phenyl)piperazine-1-carboxylate]",5.2 µM
20,"CN(C)S(=O)(=O)c1ccc(S(=O)(=O)NC2CCCCC2N2CCC(c3ccccc3)CC2)cc1 (stereo not shown) [Example 55, N1,N1-dimethyl-N4-[2-(4-phenylpiperidin-1-yl)cyclohexyl]benzene-1,4-disulfonamide]",6.1 µM
21,"Cc1cc(S(=O)(=O)Nc2ccccc2N2CCN(C(=O)OC(C)(C)C)CC2)c(C)s1 [Example 59, tert-butyl 4-(2-((2,5-dimethylthiophene)-3-sulfonamido)phenyl)piperazine-1-carboxylate]",1.6 µM
22,"Cc1cncc(S(=O)(=O)Nc2ccccc2N2CCN(C(=O)OC(C)(C)C)CC2)c1 [Example 60, tert-butyl 4-(2-((5-methylpyridine)-3-sulfonamido)phenyl)piperazine-carboxylate]",7.3 µM

# More lines, in order of falling EC50, values ahead:
row,EC50,SMILES
1,39.5 µM,"CN(C)S(=O)(=O)c1ccc(S(=O)(=O)NC2CCCCC2N2CCOCC2)cc1 (stereo not shown) [Example 61, N1,N1-dimethyl-N4-[2-(morpholin-4-yl)cyclohexyl]benzene-1,4-disulfonamide]"
2,29.3 µM,"CN(C(=O)c1ccc(S(=O)(=O)N(C)C)cc1)c1ccccc1N1CC2CCC1C2 (stereo not shown) [Example 49, N-(2-{2-azabicyclo[2.2.1]heptan-2-yl}phenyl)-4-(dimethylsulfamoyl)-N-methylbenzamide]"
3,20 µM,"Cc1cc(C)cc(S(=O)(=O)Nc2ccccc2N2CCN(C(=O)OC(C)(C)C)CC2)c1 [Example 54, tert-butyl 4-(2-((3,5-dimethylphenyl)sulfonamido)phenyl)piperazine-1-carboxylate]"
4,15.5 µM,"Cc1cccc(S(=O)(=O)Nc2ccccc2N2CCCCC2)c1 [Example 23, 3-methyl-N-[2-(piperidin-1-yl)phenyl]benzene-1-sulfonamide]"
5,13.3 µM,"CN(C)S(=O)(=O)c1ccc(S(=O)(=O)Nc2ccccc2N2CCOCC2)cc1 [Example 27, N1,N1-dimethyl-N4-[2-(morpholin-4-yl)phenyl]benzene-1,4-disulfonamide]"
6,7.7 µM,"CN(C)S(=O)(=O)c1ccc(S(=O)(=O)Nc2ccccc2N2CCCC(c3ccccc3)C2)cc1 (stereo not shown) [Example 35, N1,N1-dimethyl-N4-[2-(3-phenylpiperidin-1-yl)phenyl]benzene-1,4-disulfonamide]"
7,6.3 µM,"CN(C)S(=O)(=O)c1ccc(S(=O)(=O)Nc2ccccc2N2CCC(c3ccccc3)C2)cc1 (stereo not shown) [Example 37, N1,N1-dimethyl-N4-[2-(3-phenylpyrrolidin-1-yl)phenyl]benzene-1,4-disulfonamide]"
8,6 µM,"CC(C)Oc1ccc(S(=O)(=O)Nc2ccccc2N2CCC(C(=O)OC(C)(C)C)CC2)cc1 [Example 31, tert-butyl 1-(2-((4-isopropoxyphenyl)sulfonamido)phenyl)piperidine-4-carboxylate]"
9,3.6 µM,"Cc1nc(C)c(S(=O)(=O)Nc2ccccc2N2CCN(C(=O)OC(C)(C)C)CC2)s1 [Example 56, tert-butyl 4-(2-((2,4-dimethylthiazole)-5-sulfonamido)phenyl)piperazine-1-carboxylate]"
10,3 µM,"Cc1ccc(S(=O)(=O)Nc2ccccc2N2CCN(C(=O)OC(C)(C)C)CC2)cc1C [Example 51, tert-butyl 4-(2-((3,4-dimethylphenyl)sulfonamido)phenyl)piperazine-1-carboxylate]"
11,2.6 µM,"CN(C)S(=O)(=O)c1ccc(S(=O)(=O)Nc2ccccc2N2CCC(F)CC2)cc1 [Example 44, N1-(2-(4-fluoropiperidin-1-yl)phenyl)-N4,N4-dimethylbenzene-1,4-disulfonamide]"
12,2.2 µM,"Cc1ccc(S(=O)(=O)Nc2ccccc2N2CCN(C(=O)OC(C)(C)C)CC2)c(C)c1 [Example 50, tert-butyl 4-(2-((2,4-dimethylphenyl)sulfonamido)phenyl)piperazine-1-carboxylate]"
